Assays:
Burkitt lymphoma = conditions: single agent; cited from earlier work
Ku70 = assay: Immunoprecipitation of LSD1 or SIRT1 in KCL-22 cells to detect interaction with Ku70; assay type: cell-based
Procedure: IP of LSD1 or SIRT1 was carried out in KCL-22 cells to detect their interaction with Ku70, respectively. […] (B) Without and with treatment of 1 mM H2O2 for 1 h and 0.25 μM camptothecin (CPT) for 12 h. Flag was used for IP control.
To explore the mechanisms, Applicants used immunoprecipitation (IP) assay to examine SIRT1, LSD1 and Ku70 interaction.

KCL-22 CML cells = KCL-22 CML cells upon imatinib treatment; cited from earlier work
[1] = 2.5 μM imatinib (STI) for 24 and 48 h

SMILES: O=c1[nH]c(S)nc(-c2ccccc2)c1Cc1c(O)ccc2ccccc12 [cambinol, 5-[(2-hydroxy-1-naphthyl)methyl]-2-mercapto-6-phenyl-4(3H)-pyrimidinone]
- sensitivity of Burkitt lymphoma (Burkitt lymphoma): sensitive

SMILES: CC[C@@]1(O)C(=O)OCc2c1cc1n(c2=O)Cc2cc3ccccc3nc2-1 [camptothecin]
- LSD1/SIRT1 interaction with Ku70 (Ku70; 0.25 μM camptothecin (CPT) for 12 h): switch of LSD1/SIRT1 interaction with Ku70

SMILES: OO [hydrogen peroxide]
- LSD1/SIRT1 interaction with Ku70 (Ku70; 1 mM H2O2 for 1 h): switch of LSD1/SIRT1 interaction with Ku70

SMILES: Cc1ccc(NC(=O)c2ccc(CN3CCN(C)CC3)cc2)cc1Nc1nccc(-c2cccnc2)n1 [imatinib]
- LSD1 interaction with Ku70 (Ku70; [1]): reduced
- SIRT1 interaction with Ku70 (Ku70; [1]): rapidly enhanced
- total SIRT1 level (Ku70; 48 h drug treatment): partially reduced
- acquisition of T315I BCR-ABL kinase domain mutation (KCL-22 CML cells): rapidly acquire T315I BCR-ABL kinase domain mutation
